This is an account of results in patent US20120214734A1, “TREATMENT OF METABOLIC DISORDERS” (priority 2011, published 2012).

Each structure is given as a SMILES string.

Assay type in all cases: in vivo, human
The nature of series [1]: Retrospective screen of chronic-care charts of obese hypertensive prisoners: random serum glucose, fasting lipid panel, blood pressure, weight. The following applies: for dose-dependent effects: chart study, discussion. From the text: One-hundred ten (110) patient charts in chronic care for hypertension at an 1800-capacity prison were initially screened. The data included age, weight, height, ethnicity, medications, lipid panel results for glucose, triglycerides and HDL-C, and blood pressure. All known or previously diagnosed diabetics were excluded from the study.
For cases involving ACE inhibitor plus simvastatin, further analysis included evaluation of total cholesterol and calculated low density lipoprotein (LDL-C).
In order to evaluate the effects of simvastatin without ACE inhibitor, 5 additional charts were screened (increasing n to 13).
The data were analyzed with respect to random serum lab values including random serum glucose and fasting lipid panel (which included total cholesterol, HDL-C, TG, and the calculated LDL-C). […] In addition, a few charts were evaluated for temporal changes spanning chronic care visits including weight, mean arterial blood pressure, medication adjustments, and random serum values of HDL-C, triglycerides, and glucose. A two-tailed student t test was used to test for significance between 2 sample means. Linear regression analysis with F statistic was used to obtain goodness of fit. Only coefficients of determination (r2) of 0.1 or greater were reported. […] The level of significance used was a probability (P)<0.05.

Series [2] can be described thus: Example 3: ACE inhibitor given to severely obese person with low HDL-C. Particulars: 75 mg/day, after 1 year; baseline 25 mg/dL. How it is done: A person presents with normal blood pressure (125/85), normal fasting glucose (105 mg/dL), and normal triglyceride (145 mg/dL). They are severely obese with a BMI of 40. […] The patient is considered to be at significant risk of developing metabolic syndrome and/or cardiovascular disease later in life. They are advised of the risk and of the beneficial effects of losing weight. After 1 year the patient advises that despite strenuous effects to lose weight, including dieting and exercise, their bodyweight remains the same. They are prescribed Captopril, 75 mg/day.

Series [3] is described as follows: Example 2: ACE inhibitor given to non-obese person with low HDL-C. Particulars: 10 mg/day, after 1 year; baseline 30 mg/dL; without concomitant weight loss or lifestyle changes. How it is done: A non-obese person presents for physical examination. […] The patient's parent is on anti-hypertension and anti-lipemic medications. The patient's older sibling is obese, hypertensive, and is being treated for coronary artery disease including recent placement of a cardiac stent for primary coronary artery blockage. […] Given the patients family history and low HDL-C […] risk of developing one or more metabolic conditions is considered high. They are prescribed Lisinopril, 10 mg/day.

Setting [4] is: FIG. 7, upper limit of normal daily dosages.
The mark [5] stands for this setting: one individual over 44 months (FIG. 3), captopril from 24 months, no anti-lipemic agent.
Setting [6] is: FIG. 5A, controls without ACE inhibitor (with and without Hctz).

`C[C@H](CS)C(=O)N1CCC[C@H]1C(=O)O` [captopril]: the “triglyceride, dose effect” value in series [1] (FIG. 6B) is reported as “significant (P <0.02) dose-dependent decrease”. Further, in series [1] (setting [4]), the “mean HDL-C” value is “parallel increases”, the mean glucose entry is “parallel decreases” and the mean triglyceride entry is “parallel decreases”. Also, the dose-dependent effects result in series [1] is reported as “dose-dependent effects”. In addition, the HDL-C entry in series [1] (one individual followed over 44 months (FIG. 3), captopril introduced at 24 months, atenolol and hydrochlorothiazide discontinued, no anti-lipemic agent) is “increased”. Moreover, in series [1] (setting [5]), the glucose entry is recorded as “decreased”, the “mean arterial blood pressure” value is reported as “decreased” and the serum triglyceride entry is “decreased”. Further, the HDL-C levels in series [2] was found to be 30 mg/dL.
For the molecule `CCOC(=O)[C@H](CCc1ccccc1)N[C@@H](C)C(=O)N1CCC[C@H]1C(=O)O` [enalapril], in series [1] (setting [4]), the “mean HDL-C” value is “parallel increases”, the mean glucose result is recorded as “parallel decreases” and the mean triglyceride result is listed as “parallel decreases”.
Turning to `NS(=O)(=O)c1cc2c(cc1Cl)NCNS2(=O)=O` [Hctz, Hydrochlorothiazide], the mean glucose in series [1] (FIG. 5A, controls without ACE inhibitor (stated for both controls, with and without Hctz)) is more than 110 mg/dL. For the same molecule, in series [1] (setting [6]), the “mean HDL-C” value is less than 42 mg/dL and the mean triglyceride is more than 159 mg/dL. Besides, in series [1] (FIG. 5C, absence of ACE inhibitor), the “random serum glucose with age” value is “caused an age-related increase”. Moreover, in series [1] (presence of Hctz, n=15, no ACE inhibitor, no anti-lipemic), the “mean glucose +/-SEM” value is 105.8 ± 5.4 mg/dL. Besides, the insulin-resistant state result in series [1] (with vs without Hctz, no ACE inhibitor) is given as “did not improve”.
As to `NCCCC[C@H](N[C@@H](CCc1ccccc1)C(=O)O)C(=O)N1CCC[C@H]1C(=O)O` [lisinopril], the “dose effects with glucose, triglyceride and HDL-C” value in series [1] (20 and 40 mg/day) is given as “occurred”. In addition, in series [1] (FIG. 6A), the “HDL-C, dose effect” value is on record as “significant (P<0.05) dose-dependent increase”. In addition, in series [1] (setting [4]), the “mean HDL-C” value is given as “parallel increases”, the mean glucose result is reported as “parallel decreases” and the mean triglyceride result is on record as “parallel decreases”. For the same molecule, the dose-dependent effects entry in series [1] is “dose-dependent effects”. For the same molecule, the HDL-C levels result in series [3] is “have risen”.
In the case of `C[C@H](N[C@@H](CCc1ccccc1)C(=O)O)C(=O)N1CCC[C@H]1C(=O)O` [enalaprilat], the “potency at preventing insulin resistance” value in series [1] (compared with captopril, at presumptive therapeutically equivalent antihypertensive dosages) is on record as “less potent”.
